Tests used:
[1] = biological target: T1, gamma secretase γ and ε cleavage of Fas-APPsw-DD (Homo sapiens, UniProt P49768); assay: Concurrent Aβ and AICD ELISA in Fas-APPsw-DD transfected 293 cells (APP γ versus ε cleavage); format: cell-based
T1 construct: active gamma secretase is endogenously and constitutively produced by the cell cultures; endogenous in cells; host or cells: HEK 293, transfected with Fas-APPsw-DD
Protocol: Polyclonal antibody AICD ELISA. HEK 293 cells were grown under standard conditions to ˜90% confluence. Cells were harvested, counted, and subsequently plated onto PDL-coated 60 mm dishes at 2×10^6 cells/dish in 5 mL media. The cells were allowed to settle onto the dishes for ˜4 hours. Transfection of various construct into cells was performed using standard techniques using Lipofectamine 2000™ (LF2K) (Invitrogen). Briefly, 2 μg plasmid DNA and 4 μL LF2K were diluted into separate 150 μL aliquots of Opti-MEM (Gibco), and allowed to stand for 10-15 minutes. The two aliquots were then mixed, and the DNA:Lipid complex allowed to form for about 20 minutes. The 300 μL DNA:Lipid complex was then added to the cells in 3 mL fresh media, and incubated overnight. In order to administer potential or known gamma secretase inhibitor compounds to cells, the transfected cells were harvested, replated into PDL-coated 24-well plates at 200,000 cells/well, and allowed to settle onto the plates for ˜4 hours. Cells were washed, and 500 μL fresh media added. […]
The term ‘non-selective’ in this instance refers to lack of selectivity for cell Aβ over Notch signaling (or GammaAPP over GammaNotch). […] The calculated γ/ε selectivity of the non-selective compounds (FIG. 11 and Table I) were 0.7, 1.1, 1.8 and 1.9 for DAPT, 44989, 46719 and the Merck compound, respectively. […]

[2] = biological target: T2, gamma secretase cleavage of C99GVP (AICD-GVP) (Homo sapiens, UniProt P49768); assay: Luciferase reporter gene assay, AICD-GVP transactivation from C99GVP in HEK293 cells; format: cell-based; conditions: C99-GVP, FIG. 5C
T2 construct: active gamma secretase is endogenously and constitutively produced by the cell cultures; endogenous in cells; host or cells: HEK 293, co-transfected with C99GVP, pG5E1B-luc and pCMV-β-gal
Protocol: Luciferase Reporter Gene Assay: Luciferase reporter assays were carried out 48 hr post-transfection. Cells seeded on 96-well plates (BD Biosciences) were washed once with PBS and harvested in 20 μl of reporter lysis buffer (Promega) per well. After adding 100 μl of luminescent substrate (Promega), the luciferase activity was measured with a MicroLumatPlus microplate luminometer (Berthold Technologies). The β-galactosidase activity was measured similarly, using a luminescent β-galactosidase substrate (BD Biosciences). As a control for transfection efficiency and general effect on transcription, the luciferase activity was normalized by measuring β-galactosidase activity on a duplicate plate. All measurements were done in triplicate and repeated at least three times.
Luciferase Assay. After confirming AICD-GVP generation in HEK cells, its ability to transactivate a luciferase reporter gene that contains Gal4 response elements in the upstream activation sequence (UAS) was tested. […] Some residual luciferase activity remained in the presence of excess gamma secretase inhibitors, even though identical treatment completely abolished AICD production as measured by Western blot (FIG. 5B). […]

[3] = system: gamma secretase (secreted Aβ40 and Aβ42); assay: Aβ sandwich ELISA of media from C99GVP or APP transfected HEK cells treated with inhibitors; format: cell-based, Human
Protocol: Inhibitor Treatment of Transfected HEK Cell: The transition state analogue gamma secretase inhibitor-L685,458 (Sigma) and the peptidomimetic inhibitor-DAPT (Dovey, H. F., et al., J Neurochem., 2001; 76:173-181) were dissolved in DMSO to make 20 mM stocks. Similarly, a number of Elan's series of sulfonamide inhibitors were prepared and used as described herein (see, also FIGS. 11-14). Inhibitors were added to cell cultures (e.g., HEK) at the indicated final concentration, and the treated cells were harvested 48 h post-transfection. The metallo-proteinase inhibitor TAPI-1 (Calbiochem) was used at a final concentration of 40 μM. The Aβ-degrading enzyme inhibitors, Bacitracin (Calbiochem) and phosphoramidon (Calbiochem) were used at final concentration of 1 mg/ml and 40 μM, respectively. All inhibitor experiments were performed in triplicate and repeated at least three times.
ELISAs used to quantify different Aβ species were performed using standard techniques as described above and in (Johnson-Wood, K., et al., Proc. Natl. Acad. Sci. U.S.A., 1997; 94: 1550-1555, incorporated by reference). The Aβ40 and Aβ42 peptides in the samples were captured onto 2G3 or 21F12 antibody coated plates, respectively, and detected with a biotinylated 2H3 antibody. The fluorescence signal generated from a streptavidin-alkaline phosphatase conjugate (Roche) was measured with a CytoFlour microplate reader (Applied Biosystems). Synthetic Aβ40 or Aβ42 peptides (Anaspec) were used to generate standard curves (FIG. 10). All measurements were done in triplicate.
Next, Aβ generation was characterized from C99GVP. Wild type HEK cells and the mock-transfection control secreted little Aβ into the conditioned media (FIG. 5D, lane 1). In contrast, transient expression of C99GVP led to robust Aβ production, as measured by IP/Western blot (FIG. 5D) and ELISAs that detect Aβ 40 and Aβ42 species, respectively ([…], top panel). […] Finally, we compared the Aβ-lowering potency of two inhibitors, using either C99GVP or the wild type APP as substrate. As determined by ELISA, the respective IC50 values for the two substrates are essentially identical (FIG. 5E).

[4] = system: nuclear AICD-GVP in COS-7 cells; assay: Immunostaining, subcellular distribution of AICD-GVP in transfected COS-7 cells; format: cell-based
Protocol: Immunostaining: Wild type or transiently transfected COS-7 cells (ATCC) were fixed at room temperature with 2% paraformaldehyde in PBS for 20 min and subsequently permeabilized with 0.2% Triton X-100 in PBS for 10 min. C99GVP and mutant substrates as well as AICD-GVP were detected by incubating the samples sequentially with polyclonal anti-VP16 for 2 h and Rhodamine-conjugated donkey anti-goat secondary antibody (Jackson Laboratory Cat. #705-165-003) for 1 h. All staining was visualized on a Bio-Rad MRC 1024ES confocal microscope (Bio-Rad) and captured with a coupled CCD camera.

γ/ε selectivity = IC50 AICD/IC50 Aβ [1]: 0.7
Aβ potency (IC50) with C99GVP versus native APP substrate ([3]; FIG. 5E): equal Aβ potency
SMILES: C[C@H](NC(=O)Cc1cc(F)cc(F)c1)C(=O)N[C@H](C(=O)OC(C)(C)C)c1ccccc1 [DAPT]
luciferase reporter transactivation by AICD-GVP [2]: block luciferase reporter transactivation
secreted Aβ (Aβ40 and Aβ42) ([3]; 5 μM, 24 h, FIG. 5D): block secreted Aβ
nuclear staining of AICD-GVP ([4]; C99GVP transfected COS-7 cells, 5 μM, FIG. 5F): abolished
nuclear staining of JMD chimeras ([4]; JMD chimeras in COS-7 cells, FIG. 6G): abolished
